Results reported in patent US20040141955A1, “Compositions related to a novel endophytic fungi and methods of use” (priority 2001, published 2004).
Where two headings read alike, the source gives them in different places.

Key:
R. solani = type: cell-based; details: for Colony diameter at 3 days (mm) / Viability: single compound; for Colony diameter at 3 days (mm): untreated control 70-72 mm; for lethal effect on R. solani: similar to that observed when R. solani is exposed to M. albus; for Percent Inibition of Colony growth at 3 days: 30 μl (0.92) of compound, or 30 μl each (0.92) in mixtures, per 65 mL head space
Description: In one set of experiments, a Petri plate divided by plastic walls into 3 equal spaces was used for the assay. A plug of R. solani was placed in one section of the Petri plate containing PDA. On another section of the plate, a lx2 cm piece of sterile filter paper was loaded with the test compound(s). All plates were wrapped with two layers of saran film and incubated at room temperature. The head space in each plate was 65 ml. Removing the agar plug and placing it onto a fresh PDA Petri plate determined the viability of R. Solani exposed to each test compound. Control experiments were also conducted along side without test compound(s).
The diameter of R. solani colonies on untreated control plates was 70-72 mm. The (+) symbol in the viability column of each table above indicates continued viability of the organism after exposure to and removal from the given compound or mixture, while the (−) symbol indicates death of the organism. Multiple (+) and (−) symbols in the same column indicate the results of multiple trials.
Synergism between the volatile organic components produced by M. albus was studied using the method of Limpel as described by Richer (Richer, D. L. 1987). The determination of synergy as described by Limpel can be represented by the following equation: […]
Where Ee is the expected additive effect of the two antifungal compounds, X is the observed percentage of inhibition of the test organism when antifungal agent A is applied alone at the rate used in the mixture, and Y is the observed percentage inhibition of the test organism when antifungal agent B is used alone at the rate used in the mixture.
Experimental studies were set up to determine if synergy exists between the components produced by M. albus. The biological activity of individual volatile organic compounds and mixtures of volatile organic compounds was tested according to the method described in Example 10 above. The observed inhibitory effects of the volatile organic compounds were then compared to the expected additive effects as calculated from the equation above.

[1] = system: selected group of 7 test fungi; experiment: Artificial atmosphere test of esters and individual esters; type: cell-based
Description: In another set of experiments, test solutions were prepared by placing the volatile organic compounds isolatable from Muscodor albus cultures grown on potato dextrose agar (PDA) in vials in the relative proportions that they occurred in the gas phase of such cultures. The test mixture was placed in a presterilized microcup (4×6 mm) located in the center of a Petri plate containing PDA. When not in use, the mixture was stored at 0° C. The test organisms, freshly growing and excised on 3 mm^3 agar blocks (at least 3 agar blocks per test fungus), were placed 2-3 cm from the microcup and the plate wrapped with two layers of parafilm and grown for 2 or more days at 23° C. Measurements were made on mycelial growth from the edge of the agar blocks. However, in the case of bacteria and Candida albicans they were streaked on the test side of the PDA plate and checked for new visible growth and viability by restreaking from the original area of the agar plate that had been inoculated. Appropriate controls were also set up in which no test solution was placed into the microcup. Tests on 3.2-90 μl of the artificial mixture per 50 CC of air space above the PDA plate were done on 3 replicates in order to obtain IC50 data for each test organism. Viability of the test microbes was made by aseptically removing the small agar block and placing it on a PDA plate and observing growth after 1-3 days.
To determine the relative biological activity of each class of compounds, individual classes were also tested in the relative amounts in which they occur at the optimum concentration of the entire mixture, which is 60 μl of test mixture per 50 CC of air space above the culture in a standard Petri plate. For instance, the esters represent 44% of the mixture of the identified volatiles and were tested at 26.4 μl/50 CC (0.53 μl/CC) air space and the same procedure was used for each of the other classes of compounds that were identified. This was done with a selected group of 7 test fungi.
Each compound in the class of esters was individually evaluated. […]

[2] = amount 0.92 (60 μl/65 mL head space)

CCC(C)CO (centres unmarked) [2-Methyl-1-butanol]
Colony diameter at 3 days (mm) (R. solani; [2]): no growth

CC(C)CCO [3-methyl-1-butanol]
lethal effect on R. solani (R. solani): lethal effect | Colony diameter at 3 days (mm) (R. solani; amount 0.46 (30 μl/65 mL head space)): fuzz | Viability (R. solani; [2]): no | Colony diameter at 3 days (mm) (R. solani; [2]): no growth

CCOC(=O)CC [Ethyl propionate]
Percent Inibition of Colony growth at 3 days (R. solani): 76%

CC(C)CCOC(=O)C(C)C [propionic acid, 2-methyl, 3-methylbutyl ester]
inhibitory bioactivity of the individual ester ([1]; each ester individually evaluated, comparable test): minimal inhibitory bioactivity

CCCC(=O)OCC [Ethyl butyrate]
Percent Inibition of Colony growth at 3 days (R. solani): 86% | Colony diameter at 3 days (mm) (R. solani; [2]): no growth

CC(C)C(=O)O [Isobutyric acid]
lethal effect on R. solani (R. solani): lethal effect | Viability (R. solani; [2]): no | Colony diameter at 3 days (mm) (R. solani; [2]): no growth

CC(=O)OCCC(C)C [3-methylbutyl acetate, 1-butanol, 3-methyl, acetate]
death of test fungus ([1]; standard 3 day exposure period): under no conditions in any test, was death of any test fungus observed | inhibitory bioactivity of the individual ester ([1]; tested at the level of 0.32 μl/CC (62% of all identified combined esters)): almost completely mimicked the results of all esters
